Test results from article PMC4805082, “Seizure control by decanoic acid through direct AMPA receptor inhibition” (Brain, 2015).

Experiments:
[1] = target: T1, AMPA receptor GluA1/2 (Homo sapiens, UniProt P42261+P42262); test: Two-electrode voltage clamp, AMPA receptor GluA1/2 expressed in Xenopus oocytes; type: cell-based
T1 construct: expressed in transfected cells; host or cells: Xenopus laevis oocytes injected with cRNA (1:1 mix)
Procedure: The AMPA receptor (flip isoform) cDNAs inserted in a SP6 polymerase expression vector (pSP6T) were a generous gift from Prof. Ralf Schoepfer (NPP, UCL). […] AMPA receptor cRNAs were mixed in a nominal 1:1 ratio and ∼5 ng was injected per oocyte.
Xenopus laevis oocytes were purchased from the European Xenopus Resource Centre, University of Portsmouth. Stage V to VI oocytes were mechanically dissected and then subjected to gentle shaking for ∼30–50 min at room temperature with modified Barth’s solution (in mM): 88 NaCl, 1 KCl, 2.4 NaHCO3, 0.82 MgCl2, 0.77 CaCl2, 15 Tris-Cl, adjusted to pH 7.4 with NaOH (Sigma-Aldrich), supplemented with 50 IU/ml penicillin and 50 µg/ml streptomycin (Invitrogen) and 50 µg/ml tetracycline (Sigma-Aldrich) and 1% collagenase (type 1A). Healthy oocytes were manually defolliculated and the injections of cRNA for homomeric subunits alone (GluA1), or heteromeric mixtures of two subunits together (GluA1/GluA2 or GluA2/GluA3) were made using an automated Drummond Nanoinject II injector. The oocytes were then incubated at 17°C in modified Barth’s solution for at least 48 h before use in electrophysiological recordings.
Experiments were performed at room temperature (∼21–23°C). […]

[2] = test system: epileptiform activity (burst discharges) in hippocampal slices induced by low-Mg2+; test: In vitro seizure model, low-Mg2+ induced epileptiform activity in hippocampal slices; type: cell-based, rat; settings: 1 mM; low magnesium
Procedure: (§1) Male Sprague-Dawley rats (postnatal Days 19–30) were sacrificed using an overdose of isoflurane or pentobarbitone (500 mg/kg). After decapitation the brain was rapidly removed, the hippocampus or entorhinal cortex-hippocampus slices was dissected from the brain and […] thick transverse slices were prepared on a VT1200S vibratome (Leica) or Vibratome (Vibratome® 1500 sectioning system, Intracell). The slicing was performed in ice-cold sucrose-based solution containing (in mM): 75 sucrose, 87 NaCl, 22 glucose, 2.5 KCl, 7 MgCl2, 1.25 NaH2PO4, 0.5 CaCl2 and 25 NaHCO3, pH 7.4, 315–330 mOsm equilibrated with 95% O2 plus 5% CO2. The slices were then stored in a continuously oxygenated humidified interface holding chamber containing oxygenated artificial CSF (in mM): 120 NaCl, 22 glucose, 2.5 KCl, 1.3 MgSO4, 1 NaH2PO4, 25 NaHCO3 and 2.5 CaCl2, pH 7.4 296 mOsm, where they recovered for at least 1 h before use.
During the experiment, slices were transferred from the interface chamber into a submerged recording chamber, designed to optimize wash-in and wash-out of drugs, and continuously perfused using gravity feed at 3–6 ml/min with prewarmed (36°C) oxygenated artificial CSF (95% O2, 5% CO2). Field potentials were recorded with a glass microelectrode (1–2 MΩ) filled with artificial CSF solution placed in stratum radiatum of CA1 and were filtered at 1 kHz and digitized at 2 kHz (using an npi EXT-02F extracellular amplifier recorded with WinEDR software). In the pentylenetetrazol model, the epileptiform (paroxysmal) activity was induced by application of pentylenetetrazol (2 mM) to the perfusate and [K^+] was increased (to 6 mM); in low-Mg^2+ model, the epileptiform activity was elicited by using Mg^2+-free artificial CSF. Once the frequency of the paroxysmal activity was stable for at least 10 min, compounds were applied to the perfusate for the following 40 min, and washed out for a remaining 20 min. The anticonvulsant effects were evaluated by measuring the change in the frequency of the discharges at minute intervals. […]

[3] = test system: AMPA receptor mediated EPSCs in hippocampal CA1 pyramidal neurons; test: Whole-cell patch clamp, evoked AMPA receptor mediated EPSCs in CA1 pyramidal cells; type: cell-based, rat; settings: n = 6
Procedure: as §1
For electrophysiological recording, the slices were placed in a recording chamber constantly perfused with 32–34°C oxygenated artificial CSF solution using a gravity-driven perfusion system. Whole-cell patch clamp recordings were performed on CA1 pyramidal cells (input resistance 330 ± 70 MΩ) visualized using an infrared differential contrast imaging system. For patching, standard walled borosilicate glass pipettes with a resistance of 2.5–3.5 MΩ were used, filled with an intracellular pipette solution containing (in mM): 120 Cs-methanesulphonate, 10 HEPES, 0.2 EGTA, 8 NaCl, 0.2 MgCl2, 2 Mg-ATP, 0.3Na-GTP, 5 QX314-Br, 10 phosphocreatine, pH adjusted to 7.2 and osmolality adjusted to 296 mOsm. Series resistance was monitored throughout experiments using a −5 mV step command and cells showing a >20% change in series resistance, a series of resistance of >20 MΩ or an unstable holding current were rejected. Recordings of excitatory postsynaptic currents (EPSCs) were performed in the presence of DL-APV (DL-2-amino-5-phosphonopentanoic; 100 µM), picrotoxin (100 µM) and CGP55845 (5 µM) to block NMDA-, GABAA- and GABAB-receptors, respectively. Decanoic acid (Sigma) was added to the perfusion solution. EPSCs were evoked by stimulation of Schaffer collaterals. Paired pulses were evoked with stimulations separated by 50 ms. Inhibitory postsynaptic current (IPSCs) were recorded in the presence of DL-APV (100 µM), NBQX (10 µM) and CGP55845 (5 µM) to block NMDA-, AMPA- and GABAB-receptors, respectively.
Recordings were obtained using a MultiClamp 700B amplifier (Axon instruments) and filtered at 4 kHz, digitized at 10 kHz, and stored on a PC. LabView8 (National instruments) was used for data acquisition and off-line analysis.

T1 sequence (P42261 19-906 isoform P42261-2 limits assumed): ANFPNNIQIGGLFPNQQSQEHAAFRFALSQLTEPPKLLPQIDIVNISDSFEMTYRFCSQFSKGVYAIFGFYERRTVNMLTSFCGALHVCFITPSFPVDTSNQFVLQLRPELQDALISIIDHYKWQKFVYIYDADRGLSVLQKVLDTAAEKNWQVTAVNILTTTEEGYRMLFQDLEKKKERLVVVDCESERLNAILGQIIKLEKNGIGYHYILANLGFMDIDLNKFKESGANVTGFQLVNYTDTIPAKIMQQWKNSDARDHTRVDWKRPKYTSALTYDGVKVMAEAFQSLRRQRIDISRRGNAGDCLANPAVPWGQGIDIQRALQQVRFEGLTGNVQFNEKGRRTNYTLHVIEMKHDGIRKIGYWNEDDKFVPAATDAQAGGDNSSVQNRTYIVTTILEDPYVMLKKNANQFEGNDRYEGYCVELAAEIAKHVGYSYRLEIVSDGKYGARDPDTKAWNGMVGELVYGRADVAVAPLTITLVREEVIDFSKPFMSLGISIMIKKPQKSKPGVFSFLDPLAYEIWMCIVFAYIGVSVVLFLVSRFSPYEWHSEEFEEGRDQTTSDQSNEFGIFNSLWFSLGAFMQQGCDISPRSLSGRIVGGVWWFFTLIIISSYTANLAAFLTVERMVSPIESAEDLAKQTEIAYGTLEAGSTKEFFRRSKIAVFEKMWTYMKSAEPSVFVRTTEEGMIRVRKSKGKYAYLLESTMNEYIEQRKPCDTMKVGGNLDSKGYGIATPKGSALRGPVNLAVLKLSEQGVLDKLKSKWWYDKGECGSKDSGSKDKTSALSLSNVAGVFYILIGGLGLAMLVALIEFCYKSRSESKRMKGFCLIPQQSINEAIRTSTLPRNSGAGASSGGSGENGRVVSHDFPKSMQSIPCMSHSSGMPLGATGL
T1 sequence (P42262 22-883 isoform P42262-2 limits assumed): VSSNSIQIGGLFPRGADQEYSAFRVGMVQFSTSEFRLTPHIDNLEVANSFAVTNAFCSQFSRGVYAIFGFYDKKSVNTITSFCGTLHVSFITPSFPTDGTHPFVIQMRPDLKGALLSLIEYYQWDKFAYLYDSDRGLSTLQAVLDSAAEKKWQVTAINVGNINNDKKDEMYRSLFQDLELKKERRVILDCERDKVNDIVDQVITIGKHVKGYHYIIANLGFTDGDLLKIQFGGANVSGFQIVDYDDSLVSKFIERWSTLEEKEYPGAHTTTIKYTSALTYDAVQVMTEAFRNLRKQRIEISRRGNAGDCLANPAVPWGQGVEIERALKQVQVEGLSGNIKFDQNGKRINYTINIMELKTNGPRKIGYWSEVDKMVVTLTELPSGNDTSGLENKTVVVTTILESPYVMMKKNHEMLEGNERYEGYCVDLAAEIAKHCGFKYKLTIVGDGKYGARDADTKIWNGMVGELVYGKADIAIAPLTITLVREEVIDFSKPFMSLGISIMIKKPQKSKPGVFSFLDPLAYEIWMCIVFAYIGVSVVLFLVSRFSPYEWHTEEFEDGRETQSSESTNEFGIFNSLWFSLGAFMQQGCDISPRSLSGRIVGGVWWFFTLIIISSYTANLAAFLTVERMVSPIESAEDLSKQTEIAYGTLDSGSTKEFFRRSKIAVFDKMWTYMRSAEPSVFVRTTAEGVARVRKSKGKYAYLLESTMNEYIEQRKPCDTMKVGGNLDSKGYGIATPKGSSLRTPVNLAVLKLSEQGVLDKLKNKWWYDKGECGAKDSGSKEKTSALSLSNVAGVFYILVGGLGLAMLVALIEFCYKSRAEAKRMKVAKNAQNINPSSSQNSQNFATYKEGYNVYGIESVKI

CCCCCCCCCC(=O)O [decanoic acid]
IC50 [1]: 1160 µM | effect on epileptiform activity [2]: completely blocked | decrease of EPSC amplitude ([3]; 100 µM): 17.0 ± 5.6% | decrease of EPSC amplitude ([3]; 300 µM): 38.9 ± 5.5% | effect on 1/CV^2 for EPSCs ([3]; 300 µM, versus baseline): no effect | effect on paired pulse ratio for EPSCs ([3]; 300 µM, versus baseline): did not affect
